Data taken from ChEMBL document CHEMBL1201862, “PubChem BioAssay data set” (2004).
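Cultured in 96-well plates, cells were exposed to test compound for 48 hours across five concentrations. GI50: concentration for 50% inhibition of growth.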 Activity calls are given as the source filed them. No stated cut-off is given here; in the data, active = GI50 up to about 1.1 µM and inactive = higher.

Legend:
Assay in all cases: inhibition of tumour cell growth, NCI panel, 48 h
SW-620 = tested on: SW-620
MDA-MB-231 = tested on: MDA-MB-231
PC-3 = tested on: PC-3
LOX IMVI = tested on: LOX IMVI
COLO 205 = tested on: COLO 205
786-0 = tested on: 786-0
RPMI-8226 = tested on: RPMI-8226
UACC-62 = tested on: UACC-62
UO-31 = tested on: UO-31
SK-MEL-2 = tested on: SK-MEL-2
OVCAR-3 = tested on: OVCAR-3
NCI-H522 = tested on: NCI-H522
MCF7 = tested on: MCF7
HCT-116 = tested on: HCT-116
U-251 = tested on: U-251
NCI/ADR-RES = tested on: NCI/ADR-RES
OVCAR-4 = tested on: OVCAR-4
SK-OV-3 = tested on: SK-OV-3
SN12C = tested on: SN12C
HL-60 = tested on: HL-60

Cc1nc2c(nc1C)C(=O)c1ccccc1C2=O
GI50 (SW-620): 2.98 µM (inactive)
GI50 (MDA-MB-231): 7.55 µM (inactive)
GI50 (PC-3): 3.24 µM (inactive)
GI50 (LOX IMVI): 1.05 µM (active)
GI50 (COLO 205): 2.78 µM (inactive)
GI50 (786-0): 8.38 µM (inactive)
GI50 (RPMI-8226): 11.1 µM (inactive)
GI50 (UACC-62): 0.859 µM (active)
GI50 (UO-31): 11.7 µM (inactive)
GI50 (SK-MEL-2): 1.24 µM (inactive)
GI50 (OVCAR-3): 2.68 µM (inactive)
GI50 (NCI-H522): 3.54 µM (inactive)
GI50 (MCF7): 1.36 µM (inactive)
GI50 (HCT-116): 4.65 µM (inactive)
GI50 (U-251): 6.55 µM (inactive)
GI50 (NCI/ADR-RES): 2.87 µM (inactive)
GI50 (OVCAR-4): 5.36 µM (inactive)
GI50 (SK-OV-3): 34.5 µM (inactive)
GI50 (SN12C): 2.48 µM (inactive)
GI50 (HL-60): 3.98 µM (inactive)

COc1ccc(C[C@@H]2OC3(C=CC(=O)C=C3)O[C@H]2Cc2ccc(OC)cc2)cc1
GI50 (SW-620): 0.114 µM (active)
GI50 (MDA-MB-231): 1.39 µM (inactive)
GI50 (PC-3): 1.33 µM (inactive)
GI50 (LOX IMVI): 0.172 µM (active)
GI50 (COLO 205): 1.43 µM (inactive)
GI50 (786-0): 0.184 µM (active)
GI50 (RPMI-8226): 0.202 µM (active)
GI50 (UACC-62): 1.72 µM (inactive)
GI50 (UO-31): 0.29 µM (active)
GI50 (SK-MEL-2): 1.38 µM (inactive)
GI50 (OVCAR-3): 0.673 µM (active)
GI50 (NCI-H522): 0.147 µM (active)
GI50 (MCF7): 0.558 µM (active)
GI50 (HCT-116): 0.133 µM (active)
GI50 (U-251): 1.28 µM (inactive)
GI50 (NCI/ADR-RES): 0.822 µM (active)
GI50 (OVCAR-4): 0.957 µM (active)
GI50 (SK-OV-3): 6.15 µM (inactive)
GI50 (SN12C): 1.05 µM (active)
GI50 (HL-60): 1.52 µM (inactive)

FC(F)(F)c1cccc(-c2nc3ccccc3c3c2[C@@]2(N4CCCC4)CCCC[C@@H]32)c1
GI50 (SW-620): 36.2 µM (inactive)
GI50 (MDA-MB-231): 18.5 µM (inactive)
GI50 (PC-3): 37 µM (inactive)
GI50 (LOX IMVI): 18.1 µM (inactive)
GI50 (COLO 205): 15.5 µM (inactive)
GI50 (786-0): 38.4 µM (inactive)
GI50 (RPMI-8226): 17.5 µM (inactive)
GI50 (UACC-62): 23.5 µM (inactive)
GI50 (UO-31): 18 µM (inactive)
GI50 (SK-MEL-2): 17.8 µM (inactive)
GI50 (OVCAR-3): 38.9 µM (inactive)
GI50 (NCI-H522): 13.3 µM (inactive)
GI50 (MCF7): 20 µM (inactive)
GI50 (HCT-116): 35.6 µM (inactive)
GI50 (U-251): 23.1 µM (inactive)
GI50 (NCI/ADR-RES): > 100 µM (inactive)
GI50 (OVCAR-4): 35.3 µM (inactive)
GI50 (SK-OV-3): 36.9 µM (inactive)
GI50 (SN12C): 40.4 µM (inactive)
GI50 (HL-60): 25.8 µM (inactive)

Cc1cc2c(cc1C)C(=O)/C(=N/Nc1ccc(F)cc1)CCO2
GI50 (SW-620): > 100 µM (inactive)
GI50 (MDA-MB-231): > 100 µM (inactive)
GI50 (PC-3): > 100 µM (inactive)
GI50 (LOX IMVI): 65.8 µM (inactive)
GI50 (COLO 205): > 100 µM (inactive)
GI50 (786-0): > 100 µM (inactive)
GI50 (RPMI-8226): > 100 µM (inactive)
GI50 (UACC-62): > 100 µM (inactive)
GI50 (UO-31): > 100 µM (inactive)
GI50 (SK-MEL-2): 20.4 µM (inactive)
GI50 (OVCAR-3): > 100 µM (inactive)
GI50 (NCI-H522): > 100 µM (inactive)
GI50 (MCF7): > 100 µM (inactive)
GI50 (HCT-116): > 100 µM (inactive)
GI50 (U-251): > 100 µM (inactive)
GI50 (NCI/ADR-RES): > 100 µM (inactive)
GI50 (OVCAR-4): > 100 µM (inactive)
GI50 (SK-OV-3): > 100 µM (inactive)
GI50 (SN12C): > 100 µM (inactive)
GI50 (HL-60): 26.4 µM (inactive)

Cc1cc(C)nc(NS(=O)(=O)c2ccc(Nc3c4ccccc4nc4ccc(C(=O)Nc5ccc(S(=O)(=O)N=C(N)N)cc5)cc34)cc2)n1
GI50 (SW-620): 48.4 µM (inactive)
GI50 (MDA-MB-231): 81.8 µM (inactive)
GI50 (PC-3): > 100 µM (inactive)
GI50 (LOX IMVI): 17 µM (inactive)
GI50 (COLO 205): > 100 µM (inactive)
GI50 (786-0): 23.3 µM (inactive)
GI50 (RPMI-8226): 35.7 µM (inactive)
GI50 (UACC-62): > 100 µM (inactive)
GI50 (UO-31): 82.4 µM (inactive)
GI50 (SK-MEL-2): > 100 µM (inactive)
GI50 (OVCAR-3): 43.4 µM (inactive)
GI50 (NCI-H522): 65.8 µM (inactive)
GI50 (MCF7): 23.2 µM (inactive)
GI50 (HCT-116): 70.1 µM (inactive)
GI50 (U-251): 60.7 µM (inactive)
GI50 (NCI/ADR-RES): > 100 µM (inactive)
GI50 (OVCAR-4): 55.3 µM (inactive)
GI50 (SK-OV-3): > 100 µM (inactive)
GI50 (SN12C): 97.7 µM (inactive)
GI50 (HL-60): 34.3 µM (inactive)

N#CN1C2CCC1CC(=O)C2
GI50 (SW-620): > 100 µM (inactive)
GI50 (MDA-MB-231): > 100 µM (inactive)
GI50 (PC-3): > 100 µM (inactive)
GI50 (LOX IMVI): > 100 µM (inactive)
GI50 (COLO 205): > 100 µM (inactive)
GI50 (786-0): > 100 µM (inactive)
GI50 (RPMI-8226): > 100 µM (inactive)
GI50 (UACC-62): > 100 µM (inactive)
GI50 (UO-31): > 100 µM (inactive)
GI50 (SK-MEL-2): > 100 µM (inactive)
GI50 (OVCAR-3): > 100 µM (inactive)
GI50 (NCI-H522): > 100 µM (inactive)
GI50 (MCF7): > 100 µM (inactive)
GI50 (HCT-116): > 100 µM (inactive)
GI50 (U-251): > 100 µM (inactive)
GI50 (NCI/ADR-RES): > 100 µM (inactive)
GI50 (OVCAR-4): > 100 µM (inactive)
GI50 (SK-OV-3): > 100 µM (inactive)
GI50 (SN12C): > 100 µM (inactive)
GI50 (HL-60): > 100 µM (inactive)

CN(C)CCC(=O)N1C/C(=C\c2ccc(Cl)c(Cl)c2)C(=O)/C(=C/c2ccc(Cl)c(Cl)c2)C1
GI50 (SW-620): 0.102 µM (active)
GI50 (MDA-MB-231): 0.127 µM (active)
GI50 (PC-3): 0.102 µM (active)
GI50 (LOX IMVI): 0.1 µM (active)
GI50 (COLO 205): 0.223 µM (active)
GI50 (786-0): 0.125 µM (active)
GI50 (RPMI-8226): 0.074 µM (active)
GI50 (UACC-62): 0.608 µM (active)
GI50 (UO-31): 0.336 µM (active)
GI50 (SK-MEL-2): 1.63 µM (inactive)
GI50 (OVCAR-3): 0.448 µM (active)
GI50 (NCI-H522): 0.2 µM (active)
GI50 (MCF7): 0.14 µM (active)
GI50 (HCT-116): 0.119 µM (active)
GI50 (U-251): 0.149 µM (active)
GI50 (NCI/ADR-RES): 0.147 µM (active)
GI50 (OVCAR-4): 0.245 µM (active)
GI50 (SK-OV-3): 1.86 µM (inactive)
GI50 (SN12C): 0.207 µM (active)
GI50 (HL-60): 0.0435 µM (active)
